Consider 27 molecules from patent US12264134B2 (Merck Sharp & Dohme LLC, priority 2018, dated 2025).

A word on the IC50: it is the concentration that gives 50% inhibition.

Chain of IDO1 (P14902 whole entry): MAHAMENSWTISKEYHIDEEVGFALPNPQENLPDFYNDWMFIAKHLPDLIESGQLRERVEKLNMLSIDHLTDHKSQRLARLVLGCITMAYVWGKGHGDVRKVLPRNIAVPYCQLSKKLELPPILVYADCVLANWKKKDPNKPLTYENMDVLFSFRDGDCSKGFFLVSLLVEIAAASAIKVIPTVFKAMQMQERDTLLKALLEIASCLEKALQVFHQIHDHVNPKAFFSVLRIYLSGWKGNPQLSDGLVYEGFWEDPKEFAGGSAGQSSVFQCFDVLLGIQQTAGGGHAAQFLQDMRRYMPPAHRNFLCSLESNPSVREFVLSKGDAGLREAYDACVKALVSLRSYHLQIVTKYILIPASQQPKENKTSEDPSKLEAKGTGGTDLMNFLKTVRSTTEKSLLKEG

The assay has as its target IDO1 (Homo sapiens, UniProt P14902). As to the kind of experiment: IDO1 Cellular Assay in HeLa Cells Stimulated with IFNγ. Format: cell-based. To be noted: read-out: HeLa Cell Potency, IC50.
Regarding `Cc1c(N2CCN(C(=O)Cn3nc(C(=O)N4C[C@@H](C)O[C@@H](C)C4)c4c3CCC4)CC2)ccc(F)c1F` [Example 49, 1-[4-(3,4-difluoro-2-methylphenyl)piperazin-1-yl]-2-{3-[(2R,6S)-2,6-dimethylmorpholine-4-carbonyl]-5,6-dihydrocyclopenta[c]pyrazol-1(4H)-yl}ethan-1-one], the IC50 was found to be 13.5 nM.
`Cc1ccc(N2CCN(C(=O)Cn3nc(C(=O)N4C[C@@H](C)O[C@@H](C)C4)c4c3CCC4)CC2)c(C)c1` [Example 50, 2-{3-[(2R,6S)-2,6-dimethylmorpholine-4-carbonyl]-5,6-dihydrocyclopenta[c]pyrazol-1(4H)-yl}-1-[4-(2,4-dimethylphenyl)piperazin-1-yl]ethan-1-one]: the IC50 worked out at 15.1 nM.
As for `C[C@@H]1CN(C(=O)c2nn(CC(=O)N3CCN(c4ccc(C(F)(F)F)cc4)CC3)c3c2CCC3)C[C@H](C)O1` [Example 51, 2-{3-[(2R,6S)-2,6-dimethylmorpholine-4-carbonyl]-5,6-dihydrocyclopenta[c]pyrazol-1(4H)-yl}-1-{4-[4-(trifluoromethyl)phenyl]piperazin-1-yl}ethan-1-one], the concentration for half-maximal inhibition (IC50) came to 173 nM.
Turning to `C[C@@H]1CN(C(=O)c2nn(CC(=O)N3CCN(c4cccc5c4CCCC5)CC3)c3c2CCC3)C[C@H](C)O1` [Example 52, 2-{3-[(2R,6S)-2,6-dimethylmorpholine-4-carbonyl]-5,6-dihydrocyclopenta[c]pyrazol-1(4H)-yl}-1-[4-(5,6,7,8-tetrahydronaphthalen-1-yl)piperazin-1-yl]ethan-1-one], the half-maximal inhibitory concentration (IC50) worked out at 10.4 nM.
Take `Cc1cc(N2CCN(C(=O)Cn3nc(C(=O)N4C[C@@H](C)O[C@@H](C)C4)c4c3CCC4)CC2)ccc1F` [Example 53]: the IC50 is 76.9 nM.
As to `C[C@@H]1CN(C(=O)c2nn(CC(=O)N3CCN(c4ccc(Cl)c(F)c4)CC3)c3c2CCC3)C[C@H](C)O1` [Example 54, 1-[4-(4-chloro-3-fluorophenyl)piperazin-1-yl]-2-{3-[(2R,6S)-2,6-dimethylmorpholine-4-carbonyl]-5,6-dihydrocyclopenta[c]pyrazol-1(4H)-yl}ethan-1-one], the IC50 is 57.1 nM.
On to `C[C@@H]1CN(C(=O)c2nn(CC(=O)N3CCN(c4ccccc4Cl)CC3)c3c2CCC3)C[C@H](C)O1` [Example 55, 1-[4-(2-chlorophenyl)piperazin-1-yl]-2-{3-[(2R,6S)-2,6-dimethylmorpholine-4-carbonyl]-5,6-dihydrocyclopenta[c]pyrazol-1(4H)-yl}ethan-1-one], for which the IC50 was 244 nM.
Turning to `Cc1ccc(N2CCN(C(=O)Cn3nc(C(=O)N4C[C@@H](C)O[C@@H](C)C4)c4c3CCC4)CC2)c(F)c1` [Example 56, 2-{3-[(2R,6S)-2,6-dimethylmorpholine-4-carbonyl]-5,6-dihydrocyclopenta[c]pyrazol-1(4H)-yl}-1-[4-(2-fluoro-4-methylphenyl)piperazin-1-yl]ethan-1-one], the IC50 stood at 126 nM.
The value for `C[C@@H]1CN(C(=O)c2nn(CC(=O)N3CCN(c4ccc(F)c(C(F)F)c4)CC3)c3c2CCC3)C[C@H](C)O1` [Example 58, 1-{4-[3-(difluoromethyl)-4-fluorophenyl]piperazin-1-yl}-2-{3-[(2R,6S)-2,6-dimethylmorpholine-4-carbonyl]-5,6-dihydrocyclopenta[c]pyrazol-1(4H)-yl}ethan-1-one] was 447 nM; that for `C[C@@H]1CN(C(=O)c2nn(CC(=O)N3CCN(c4ccccc4C4CC4)CC3)c3c2CCC3)C[C@H](C)O1` [Example 59, 1-[4-(2-cyclopropylphenyl)piperazin-1-yl]-2-{3-[(2R,6S)-2,6-dimethylmorpholine-4-carbonyl]-5,6-dihydrocyclopenta[c]pyrazol-1(4H)-yl}ethan-1-one] was 319 nM; that for `CCc1cccc(N2CCN(C(=O)Cn3nc(C(=O)N4C[C@@H](C)O[C@@H](C)C4)c4c3CCC4)CC2)c1` [Example 60, 2-{3-[(2R,6S)-2,6-dimethylmorpholine-4-carbonyl]-5,6-dihydrocyclopenta[c]pyrazol-1(4H)-yl}-1-[4-(3-ethylphenyl)piperazin-1-yl]ethan-1-one] was 209 nM.
Turning to `Cc1ccc(N2CCN(C(=O)Cn3nc(C(=O)N4C[C@@H](C)O[C@@H](C)C4)c4c3CCC4)CC2)cc1Cl` [Example 61, 1-[4-(3-chloro-4-methylphenyl)piperazin-1-yl]-2-{3-[(2R,6S)-2,6-dimethylmorpholine-4-carbonyl]-5,6-dihydrocyclopenta[c]pyrazol-1(4H)-yl}ethan-1-one], the IC50 turned out to be 65.6 nM.
As to `COc1cc(F)c(N2CCN(C(=O)Cn3nc(C(=O)N4C[C@@H](C)O[C@@H](C)C4)c4c3CCC4)CC2)cc1F` [Example 62, 1-[4-(2,5-difluoro-4-methoxyphenyl)piperazin-1-yl]-2-{3-[(2R,6S)-2,6-dimethylmorpholine-4-carbonyl]-5,6-dihydrocyclopenta[c]pyrazol-1(4H)-yl}ethan-1-one], the half-inhibitory concentration (IC50) is 146 nM.
As for `COc1c(C#N)cccc1N1CCN(C(=O)Cn2nc(C(=O)N3C[C@@H](C)O[C@@H](C)C3)c3c2CCC3)CC1` [Example 63, 3-[4-({3-[(2R,6S)-2,6-dimethylmorpholine-4-4-carbonyl]-5,6-dihydrocyclopenta[c]pyrazol-1(4H)-yl}acetyl)piperazin-1-yl]-2-methoxybenzonitrile], the IC50 turned out to be 335 nM.
Turning to `Cc1ccc(N2CCN(C(=O)Cn3nc(C(=O)N4C[C@@H](C)O[C@@H](C)C4)c4c3CCC4)CC2)cc1F` [Example 64, 2-{3-[(2R,6S)-2,6-dimethylmorpholine-4-carbonyl]-5,6-dihydrocyclopenta[c]pyrazol-1(4H)-yl}-1-[4-(3-fluoro-4-methylphenyl)piperazin-1-yl]ethan-1-one], the 50% inhibitory concentration (IC50) came to 30.4 nM.
Consider `COc1c(F)cccc1N1CCN(C(=O)Cn2nc(C(=O)N3C[C@@H](C)O[C@@H](C)C3)c3c2CCC3)CC1` [Example 65, 2-{3-[(2R,6S)-2,6-dimethylmorpholine-4-carbonyl]-5,6-dihydrocyclopenta[c]pyrazol-1(4H)-yl}-1-[4-(3-fluoro-2-methoxyphenyl)piperazin-1-yl]ethan-1-one], for which the IC50 was 145 nM.
For the molecule `C[C@@H]1CN(C(=O)c2nn(CC(=O)N3CCN(c4ccc(Cl)cc4Cl)CC3)c3c2CCC3)C[C@H](C)O1` [Example 67, 1-[4-(2,4-dichlorophenyl)piperazin-1-yl]-2-{3-[(2R,6S)-2,6-dimethylmorpholine-4-carbonyl]-5,6-dihydrocyclopenta[c]pyrazol-1(4H)-yl}ethan-1-one], the concentration for half-maximal inhibition (IC50) came to 133 nM.
For the molecule `C[C@@H]1CN(C(=O)c2nn(CC(=O)N3CCN(c4cccc(Cl)c4Cl)CC3)c3c2CCC3)C[C@H](C)O1` [Example 69, 1-[4-(2,3-dichlorophenyl)piperazin-1-yl]-2-{3-[(2R,6S)-2,6-dimethylmorpholine-4-carbonyl]-5,6-dihydrocyclopenta[c]pyrazol-1(4H)-yl}ethan-1-one], the IC50 is 12.1 nM.
Consider `C[C@@H]1CN(C(=O)c2nn(CC(=O)N3CCN(c4ccc(F)c(F)c4F)CC3)c3c2CCC3)C[C@H](C)O1` [Example 70, 2-{3-[(2R,6S)-2,6-dimethylmorpholine-4-carbonyl]-5,6-dihydrocyclopenta[c]pyrazol-1(4H)-yl}-1-[4-(2,3,4-trifluorophenyl)piperazin-1-yl]ethan-1-one], for which the concentration for half-maximal inhibition (IC50) is 235 nM.
For the molecule `Cc1cc(C)c(N2CCN(C(=O)Cn3nc(C(=O)N4C[C@@H](C)O[C@@H](C)C4)c4c3CCC4)CC2)cc1C` [Example 71, 2-{3-[(2R,6S)-2,6-dimethylmorpholine-4-carbonyl]-5,6-dihydrocyclopenta[c]pyrazol-1(4H)-yl}-1-[4-(2,4,5-trimethylphenyl)piperazin-1-yl]ethan-1-one], the IC50 was found to be 145 nM.
Consider `CCc1ccccc1N1CCN(C(=O)Cn2nc(C(=O)N3C[C@@H](C)O[C@@H](C)C3)c3c2CCC3)CC1` [Example 72, 2-{3-[(2R,6S)-2,6-dimethylmorpholine-4-carbonyl]-5,6-dihydrocyclopenta[c]pyrazol-1(4H)-yl}-1-[4-(2-ethylphenyl)piperazin-1-yl]ethan-1-one], for which the concentration for half-maximal inhibition (IC50) was determined as 125 nM.
For the molecule `C[C@@H]1CN(C(=O)c2nn(CC(=O)N3CCN(c4ccc5c(c4)CCCO5)CC3)c3c2CCC3)C[C@H](C)O1` [Example 73, 1-[4-(3,4-dihydro-2H-1-benzopyran-6-yl)piperazin-1-yl]-2-{3-[(2R,6S)-2,6-dimethylmorpholine-4-carbonyl]-5,6-dihydrocyclopenta[c]pyrazol-1(4H)-yl}ethan-1-one], the IC50 came out at 176 nM.
The figure for `C[C@@H]1CN(C(=O)c2nn(CC(=O)N3CCN(c4cc(F)c(F)cc4F)CC3)c3c2CCC3)C[C@H](C)O1` [Example 74, 2-{3-[(2R,6S)-2,6-dimethylmorpholine-4-carbonyl]-5,6-dihydrocyclopenta[c]pyrazol-1(4H)-yl}-1-[4-(2,4,5-trifluorophenyl)piperazin-1-yl]ethan-1-one] is 289 nM; for `Cc1ccc(F)cc1N1CCN(C(=O)Cn2nc(C(=O)N3C[C@@H](C)O[C@@H](C)C3)c3c2CCC3)CC1` [Example 75, 2-{3-[(2R,6S)-2,6-dimethylmorpholine-4-carbonyl]-5,6-dihydrocyclopenta[c]pyrazol-1(4H)-yl}-1-[4-(5-fluoro-2-methylphenyl)piperazin-1-yl]ethan-1-one] it is 34.1 nM; for `C[C@@H]1CN(C(=O)c2nn(CC(=O)N3CCN(c4cc(F)ccc4F)CC3)c3c2CCC3)C[C@H](C)O1` [Example 76, 1-[4-(2,5-difluorophenyl)piperazin-1-yl]-2-{3-[(2R,6S)-2,6-dimethylmorpholine-4-carbonyl]-5,6-dihydrocyclopenta[c]pyrazol-1(4H)-yl}ethan-1-one] it is 439 nM.
Regarding `Cc1c(F)cccc1N1CCN(C(=O)Cn2nc(C(=O)N3C[C@@H](C)O[C@@H](C)C3)c3c2CCC3)CC1` [Example 77, 2-{3-[(2R,6S)-2,6-dimethylmorpholine-4-carbonyl]-5,6-dihydrocyclopenta[c]pyrazol-1(4H)-yl}-1-[4-(3-fluoro-2-methylphenyl)piperazin-1-yl]ethan-1-one], the IC50 is 18.3 nM.
On to `C[C@@H]1CN(C(=O)c2nn(CC(=O)N3CCN(c4cccc(Cl)c4F)CC3)c3c2CCC3)C[C@H](C)O1` [Example 78, 1-[4-(3-chloro-2-fluorophenyl)piperazin-1-yl]-2-{3-[(2R,6S)-2,6-dimethylmorpholine-4-carbonyl]-5,6-dihydrocyclopenta[c]pyrazol-1(4H)-yl}ethan-1-one], for which the half-inhibitory concentration (IC50) was 38.2 nM.
